Converted amounts (≈) assume the structure as drawn. “And” between values parts separate entries of the source, which are not always exact repeats. Identical values can stand only once. Like-named read-outs stand apart in the source and are kept apart here. Marks after values point to notes of the source that are not given here.
Experiments:
[1] = tested on: human blood; format: cell-based; conditions: 30 min at 37 °C
Procedure: In vitro hemolytic activity was done by spectrophotometric method. In this study, the fresh human blood samples obtained from returned unused blood bags in the blood bank (Iranian Blood Transfusion Organization) were used. […] The mixture was incubated for 30 min at 37 °C and then centrifuged at 1500 rpm for 10 min. The free hemoglobin in the supernatant was analyzed by UV–Vis spectrophotometer at 540 nm. The PBS and distilled water (DW) were used as minimal and maximal hemolytic controls.

[2] = tested on: L. major amastigotes in J774.A1 macrophages; experiment: Parasite load in macrophage (anti-amastigote activity); format: cell-based, Leishmania major; conditions: for Number of amastigotes: mean per macrophage
Procedure: For the assessment of the parasite load, 2 × 10^5 of J774.A1 macrophages cells were cultured in a 24-well microtiter plate containing a 13 mm-diameter coverslip per well, and supplemented RPMI medium supplemented with 10% FCS and 100 U/ml penicillin and 100 μg/mL streptomycin and incubated at 37 °C in CO2 5% for 24 h. Promastigotes of L. major at the stationary phase were seeded into each well (1:10) and incubated for 24 h and the non-internalized parasites were removed by aspirating the supernatant. […] The number of infected macrophages and the number of amastigotes per macrophage were determined by counting the number of parasites in 100 macrophages in a neubauer chamber.

[3] = tested on: L929 cell line; experiment: Cytotoxicity assay (MTT); format: cell-based; conditions: for Cytotoxicity assay Percent (%): L929, 24 h
Procedure: L929 cell line was seeded into 96-well microtiter plates (Nunc, Roskilde, Denmark) in DMEM (100 μL) supplemented with 10% FBS and 1% penicillin–streptomycin solution. Cells then were incubated at 37 °C in a humidity of 95% and 5% CO2 for 24 h. […] After 24 h of incubation time, 10 μL of MTT solution was added to each well. After 3 h of incubation at 37 °C, the supernatant was removed and 100 μL of DMSO was added. Finally, the absorbance at 570 nm was measured by a microtiter plate reader (BioTek ELX800, Winooski, VT, USA) and the viability was calculated by the below formula [21]: Viability%=ODTest/ODControl×100

[4] = tested on: L. major intracellular amastigotes; conditions: 10, 50, and 100 µg/mL; cited from earlier work
[5] = tested on: nitric oxide (NO) production by infected murine peritoneal macrophages; experiment: Indirect measurement of nitric oxide production (Griess reaction); format: cell-based
Procedure: NO levels were evaluated using Griess reaction and compared to the untreated macrophages. In a 96-well microtiter plate, 2 × 10^5 murine peritoneal macrophages were cultured at 37 °C in 5% CO2 for 4 h to allow cell adhesion. 100 µL of new medium containing promastigotes in stationary phase (10 promastigotes per macrophage) was added. […] After the incubation times, the level of NO was analyzed using cell culture supernatant by an ELISA plate reader at 550 nm.

[6] = tested on: Candida albicans; conditions: cited from earlier work
[7] = Characterization by dynamic light scattering (size, PDI, zeta potential); format: physicochemical; conditions: DLS
Procedure: The homogenization followed by the probe ultra-sonication method was performed for preparing the nanoparticles. […] Then, the hot lipid phase was dispersed in the 1/3 aqueous solution containing 500 mg of hydrophilic surfactant (Tween 80), heated at the same temperature, homogenized by high-shear homogenizer at 13,000 rpm for 7 min (D-91126 Schwabach, Heidolph, Germany), and then sonicated by a probe sonicator (Bandelinsonopuls, 3100, Berlin, Germany) at power levels of 3.5 W for 5 min to form a coarse pre-emulsion. The mixture was then dispersed into 2/3 of an ice-cold surfactant solution preserved in an ice bath. The final mixture was sonicated again at power levels of 0.6 W for 10 min while dipped in the ice bath. This cooling phase encouraged the formation of lipid nanoparticles.

[8] = tested on: L. major promastigotes; experiment: Apoptosis assay (Annexin V-FITC/PI flow cytometry); format: cell-based; conditions: Leishmania major, 24 h, read-out: viability rates of cells (flow cytometry)
Procedure: They were incubated at 24 °C for 24 h. Then cells were washed twice with PBS and 1 × 10^5 cells were re-suspended in 100 μL binding buffer and incubated with 5 μL of Annexin V-FITC and propidium iodide (PI) as a counterstain for 15 min at room temperature in darkness, according to the manufacturer's instructions (BD Biosciences, San Diego, CA, USA). Finally, the percent of apoptotic and necrotic cells was evaluated by flow cytometry (Becton Dickinson) and data were analyzed using Flowjo software (version 7).

[9] = tested on: Leishmania major; experiment: In vivo assay: lesion size in infected BALB/c mice, topical treatment; conditions: after 28 days
Procedure: This study was performed in accordance with ARRIVE guidelines (https://arriveguidelines.org). Female BALB/c mice (6–7 weeks old) purchased from Razi Rad Industries were used for experimentation and kept in standard boxes under controlled light and temperature conditions. Overall, 1.6 × 10^6 promastigotes, in the stationary phase, were injected subcutaneously in the base of the tail of mice. The mice were divided into 10 groups and five mice were allocated in each group. […] After three weeks, treatment was started when local lesions were apparent. […] Topical treatment was used on each mouse every 28 continuous days. The diameter of lesions was measured weekly before and after treatment by dial micrometer (Starrett Dial indicator, model 25A, USA) and compared with that of untreated lesions. The ulcer size was determined according to the following formula (a: Length and b: width): Lesionsize=a+b/2

[10] = tested on: L. major; conditions: in vitro; cited from earlier work
[11] = tested on: L. major promastigotes; experiment: In vitro assay: live and dead promastigotes counted after eosin staining; format: cell-based, Leishmania major (Iranian strain MRHO/IR/75/ER); conditions: for effectiveness (mortality rate of promastigotes) compared with Amphotericin B: P < 0.05
Procedure: L. major promastigotes, Iranian strain MRHO/IR/75/ER, were provided by the department of parasitology, Tehran University of Medical Sciences, Tehran, Iran and were cultivated in RPMI-1640 medium supplemented with 10% FBS and penicillin–streptomycin solution at 24 °C with frequent passages every three days.
The experiments were done separately for 12, 24, 48, and 72 h in a 96-well microtiter plate. At first, 100 μL RPMI-1640 medium containing 10^5 promastigotes (at log phase) was added to each well. […] Amphotericin B (20 mg/mL) as a positive control was considered in three wells, in a concentration of 12 μM. In another row, 100 µL of medium containing parasites with phosphate buffered saline (PBS) without the drug was added as the negative controls. The plate was incubated at 24 °C for 12, 24, 48, and 72 h.

[12] = tested on: L. amazonensis; conditions: in vitro; cited from earlier work
[13] = tested on: L. amazonensis promastigotes; parameters: method as in PMID 26517558; conditions: in vitro; cited from earlier work
[14] = 20 µg/mL, 0 h (Before treatment)
[15] = 50 µg/mL, 0 h (Before treatment)
[16] = 100 µg/mL, 0 h (Before treatment)
[17] = 200 µg/mL, 0 h (Before treatment)
[18] = 400 µg/mL, 0 h (Before treatment)

Q: With `C[C@@H]1[C@H](O)[C@@H](C)/C=C/C=C/C=C/C=C/C=C/C=C/C=C/[C@H](O[C@@H]2O[C@H](C)[C@@H](O)[C@H](N)[C@@H]2O)C[C@@H]2O[C@](O)(C[C@@H](O)C[C@@H](O)[C@H](O)CC[C@@H](O)C[C@@H](O)CC(=O)O[C@H]1C)C[C@H](O)[C@H]2C(=O)O` [Amphotericin B, reference compound] as the molecule, how does the “Hemolytic assay Percent (%)” value ([1]; concentration not given) read?
A: 21.6% and 21.6 ± 5.3%

Q: What about the “MQ infectivity (%)” value [2, 14] of the same molecule?
A: 73.4%

Q: And the Number of amastigotes [2, 14]?
A: 15.7

Q: And the “MQ infectivity (%)” value ([2]; 20 µg/mL, 24 h)?
A: 34.5^* %

Q: What about the Number of amastigotes ([2]; 20 µg/mL, 24 h) of the same molecule?
A: 4.3^*

Q: What about the “MQ infectivity (%)” value ([2]; 20 µg/mL, 48 h) of the same molecule?
A: 42.7^* %

Q: What about the Number of amastigotes ([2]; 20 µg/mL, 48 h) of the same molecule?
A: 0.4^**

Q: What about the “Cytotoxicity assay Percent (%)” value ([3]; concentration not given) of the same molecule?
A: 19.5 ± 0.6%

Q: What does the source list for `Oc1ccc(/C=C/c2cc(O)cc(O)c2)cc1` [Resveratrol, 3,5,4' -trihydroxy-trans-stilbene]?
A: Hemolytic assay Percent (%) ([1]; 100 µg/mL): 17.5 ± 2.4%; Hemolytic assay Percent (%) ([1]; 200 µg/mL): 19.6 ± 3.7%; Hemolytic assay Percent (%) ([1]; 400 µg/mL (highest concentration)): 25.2 ± 5.3%; effect on intracellular amastigote [4]: resistant; NO production by macrophages compared with Amphotericin B ([5]; resveratrol 50 and 100 µg/mL, RNE 50, 100, 200, and 400 µg/mL, P < 0.05): decreased the NO production even more than Amphotericin B; production of NO compared with the control group ([5]; resveratrol ≥ 200 µg/mL, 24 h, control PBS 7.23 μM, DMSO 6.73 μM): decreased the production of NO; IC50 [6]: 10 to 20 µg/mL; average size [7]: 432.7 ± 26 nm; viability at 200 µg/mL ([8]; 200 µg/mL): 87.9%; viability at 400 µg/mL ([8]; 400 µg/mL): 71.4%; mean lesion size ([9]; 15 mg/kg BW, topical, PBS control 7.5 and 7.2 mm): 0.0 mm; anti-leishmanial activity (lesion size) compared with Amphotericin B ([9]; all concentrations, not significant (P > 0.05)): better anti-leishmanial activity; MQ infectivity (%) [2, 15]: 76.4%; Number of amastigotes [2, 15]: 17.6; MQ infectivity (%) ([2]; 50 µg/mL, 24 h): 68.4^* %; Number of amastigotes ([2]; 50 µg/mL, 24 h): 12.5; MQ infectivity (%) ([2]; 50 µg/mL, 48 h): 55.3%; Number of amastigotes ([2]; 50 µg/mL, 48 h): 9.8^*; MQ infectivity (%) [2, 16]: 81.0%; Number of amastigotes [2, 16]: 18.3; MQ infectivity (%) ([2]; 100 µg/mL, 24 h): 56.2^* %; Number of amastigotes ([2]; 100 µg/mL, 24 h): 12.1; MQ infectivity (%) ([2]; 100 µg/mL, 48 h): 41.9^* %; Number of amastigotes ([2]; 100 µg/mL, 48 h): 9.5^*; MQ infectivity (%) [2, 17]: 78.3%; Number of amastigotes [2, 17]: 18.0; MQ infectivity (%) ([2]; 200 µg/mL, 24 h): 42.6^* %; Number of amastigotes ([2]; 200 µg/mL, 24 h): 6.7^*; MQ infectivity (%) ([2]; 200 µg/mL, 48 h): 35.5^* %; Number of amastigotes ([2]; 200 µg/mL, 48 h): 2.4^*; MQ infectivity (%) [2, 18]: 79.6%; Number of amastigotes [2, 18]: 16.2; MQ infectivity (%) ([2]; 400 µg/mL, 24 h): 31.4^* %; Number of amastigotes ([2]; 400 µg/mL, 24 h): 3.3^*; MQ infectivity (%) ([2]; 400 µg/mL, 48 h): 25.8^* %; Number of amastigotes ([2]; 400 µg/mL, 48 h): 0.5^**; IC50 [10]: 65.5 µM; cytotoxicity against the L929 cell line (in words) [3]: no cytotoxicity; Cytotoxicity assay Percent (%) ([3]; 100 µg/mL): 8.4 ± 1.6%; Cytotoxicity assay Percent (%) ([3]; 200 µg/mL): 14.8 ± 3.0%; Cytotoxicity assay Percent (%) ([3]; 400 µg/mL): 18.7 ± 4.6%; promastigotes eliminated ([11]; 100 µg/mL, 48 h, 'In this study' (sentence follows description of ref 17)): 100%; IC50 ([11]; Leishmania major, promastigotes of L. major after 12 h): 16.2 µg/mL (≈ 71.1 µM); effectiveness (mortality rate of promastigotes) compared with Amphotericin B ([11]; after 12 h, 50, 100, 200, and 400 µg/mL): significantly more effective than Amphotericin B; effectiveness (mortality rate of promastigotes) compared with Amphotericin B ([11]; after 24 h, all concentrations): significantly more effective than Amphotericin B; anti-leishmanial activity compared with positive control (Amphotericin B) ([11]; after 48 h, resveratrol 50-400 µg/mL, RNE 100-400 µg/mL, not significant (P > 0.05)): better anti-leishmanial activity than positive control; IC50 [12]: 27 µM

Q: For `Oc1cc(O)cc(/C=C/c2ccc(O)cc2O)c1` [oxyresveratrol], which IC50 [13] is on record?
A: 65 µg/mL (≈ 266 µM)

Reference: paper PMC8845381 (BMC Microbiology, 2022)
